Results published in BigSolDB 2.1.

Structure (SMILES): CO[C@H]1/C=C/O[C@@]2(C)Oc3c(C)c(O)c4c(O)c(c(/C=N/N5CCN(C)CC5)c(O)c4c3C2=O)NC(=O)/C(C)=C\C=C\[C@H](C)[C@H](O)[C@@H](C)[C@@H](O)[C@@H](C)[C@H](OC(C)=O)[C@@H]1C
- solubility (mole fraction) (in ethanol, 298.2 K): 0.00011
- solubility (mole fraction) (in ethanol, 303.2 K): 0.00016
- solubility (mole fraction) (in ethanol, 308.2 K): 0.00023
- solubility (mole fraction) (in ethanol, 313.2 K): 0.00036
- solubility (mole fraction) (in ethanol, 318.2 K): 0.00053
- solubility (mole fraction) (in ethyl acetate, 298.2 K): 0.00054
- solubility (mole fraction) (in ethyl acetate, 303.2 K): 0.00074
- solubility (mole fraction) (in ethyl acetate, 308.2 K): 0.00088
- solubility (mole fraction) (in ethyl acetate, 313.2 K): 0.0091
- solubility (mole fraction) (in ethyl acetate, 318.2 K): 0.013
- solubility (mole fraction) (in eugenol, 298.2 K): 0.00028
- solubility (mole fraction) (in eugenol, 303.2 K): 0.00031
- solubility (mole fraction) (in eugenol, 308.2 K): 0.00039
- solubility (mole fraction) (in eugenol, 313.2 K): 0.00043
- solubility (mole fraction) (in eugenol, 318.2 K): 0.00059
- solubility (mole fraction) (in isopropanol, 298.2 K): 0.00073
- solubility (mole fraction) (in isopropanol, 303.2 K): 0.00089
- solubility (mole fraction) (in isopropanol, 313.2 K): 0.0016
- solubility (mole fraction) (in isopropanol, 318.2 K): 0.0017
- solubility (mole fraction) (in isopropyl myristate, 298.2 K): 0.0031
- solubility (mole fraction) (in isopropyl myristate, 303.2 K): 0.0038
- solubility (mole fraction) (in isopropyl myristate, 308.2 K): 0.0043
- solubility (mole fraction) (in isopropyl myristate, 313.2 K): 0.0047
- solubility (mole fraction) (in limonene, 298.2 K): 0.0023
- solubility (mole fraction) (in limonene, 303.2 K): 0.0036
- solubility (mole fraction) (in limonene, 308.2 K): 0.0052
- solubility (mole fraction) (in limonene, 313.2 K): 0.0085
- solubility (mole fraction) (in sec-butanol, 298.2 K): 0.00048
- solubility (mole fraction) (in sec-butanol, 303.2 K): 0.00051
- solubility (mole fraction) (in sec-butanol, 308.2 K): 0.00059
- solubility (mole fraction) (in sec-butanol, 313.2 K): 0.00076
- solubility (mole fraction) (in span 80, 298.2 K): 0.00058
- solubility (mole fraction) (in span 80, 303.2 K): 0.00064
- solubility (mole fraction) (in span 80, 308.2 K): 0.00079
- solubility (mole fraction) (in span 80, 313.2 K): 0.00085
- solubility (mole fraction) (in span 80, 318.2 K): 0.00099
- solubility (mole fraction) (in transcutol, 298.2 K): 0.00097
- solubility (mole fraction) (in transcutol, 303.2 K): 0.0013
- solubility (mole fraction) (in transcutol, 308.2 K): 0.0025
- solubility (mole fraction) (in transcutol, 313.2 K): 0.0049
- solubility (mole fraction) (in transcutol, 318.2 K): 0.018
- solubility (mole fraction) (in triacetin, 298.2 K): 0.00049
- solubility (mole fraction) (in triacetin, 303.2 K): 0.00052
- solubility (mole fraction) (in triacetin, 308.2 K): 0.00072
- solubility (mole fraction) (in triacetin, 313.2 K): 0.00073
- solubility (mole fraction) (in triacetin, 318.2 K): 0.00088
